Like-named read-outs stand apart in the source and are kept apart here. Each block holds one compound with its values, some of them ahead of it.
What was measured:
Candida albicans CYP51 [1] = settings: read-out: Kd for Candida albicans CYP51; cited from earlier work
CYP3A4 [2] = molecular target: CYP3A4 (Homo sapiens, UniProt P08684); settings: human, probe 7-benzyloxy-4-(trifluoromethyl)coumarin (BFC)
Candida albicans CYP51 [3] = settings: read-out: IC50 for Candida albicans CYP51; cited from earlier work
CYP3A4 [4] = settings: ref 39 (Godamudunage et al.); cited from earlier work
Δ3–22 human CYP3A4 (WT) [5] = molecular target: T1, Δ3–22 human CYP3A4 (WT) (Homo sapiens, UniProt P08684)
full-length human CYP3A4 [6] = molecular target: T2, full-length human CYP3A4 (Homo sapiens, UniProt P08684)
S119A mutant of CYP3A4 [7] = molecular target: T3, S119A mutant of CYP3A4 (Homo sapiens, UniProt P08684, S119A); test: biochemical
R212A mutant of CYP3A4 [8] = molecular target: T4, R212A mutant of CYP3A4 (Homo sapiens, UniProt P08684, R212A); test: biochemical
R212A mutant of CYP3A4 [9] = molecular target: T4, R212A mutant of CYP3A4
Δ3–22 human CYP3A4 (WT) [10] = molecular target: T1, Δ3–22 human CYP3A4 (WT); test: biochemical
S119A mutant of CYP3A4 [11] = molecular target: T3, S119A mutant of CYP3A4
full-length human CYP3A4 [12] = molecular target: T2, full-length human CYP3A4; remark: listed apart in the source
[13] = pH 7.5; cited from earlier work

SMILES: OC(Cn1cncn1)(Cn1cncn1)c1ccc(F)cc1F [Fluconazole]
Kd (Candida albicans CYP51 [1]): 0.047 µM | IC50 (CYP3A4 [2]): 21 µM | IC50 (Candida albicans CYP51 [3]): 0.6 to 1.2 µM | IC50 (CYP3A4 [4]): […] | Type of spectral changes induced during equilibrium titrations (Δ3–22 human CYP3A4 (WT) [5]; WT CYP3A4): […]

IC50 (full-length human CYP3A4 [6]): 18 ± 2 µM | IC50 estimate relative to that for microsomal CYP3A4 (fold higher) (full-length human CYP3A4 [6]; reconstituted system vs microsomal CYP3A4 (ref 21)): 3 fold | Kd (S119A mutant of CYP3A4 [7]): 3.4 ± 0.1 µM | Kd (R212A mutant of CYP3A4 [8]): 1.6 ± 0.1 µM | Decrease in Ks relative to WT (R212A mutant of CYP3A4 [9]; R212A vs WT): 33% | Decrease in ΔAmax relative to WT (R212A mutant of CYP3A4 [9]; R212A vs WT): 6% | Type of spectral changes induced during equilibrium titrations (Δ3–22 human CYP3A4 (WT) [5]; WT CYP3A4): type II | Kd (Δ3–22 human CYP3A4 (WT) [10]): 2.4 ± 0.1 µM | Decrease in ΔAmax relative to WT (S119A mutant of CYP3A4 [11]; S119A vs WT): 9% | Increase in Ks relative to WT (S119A mutant of CYP3A4 [11]; S119A vs WT): 42%
SMILES: CC(C)(C(=O)c1cccnc1)c1cccnc1 [Metyrapone]

Spectral changes in the presence of ligand (R212A mutant of CYP3A4 [9]): neither mutant exhibits spectral changes | Effect on CYP3A4 activity (inhibitory assays), in words (full-length human CYP3A4 [12]): only negligibly affects CYP3A4 activity | IC50 (full-length human CYP3A4 [12]): > 20000 µM | Fold lower affinity for CYP3A4 than PMSF (Δ3–22 human CYP3A4 (WT) [5]): ~ 6 fold | Type of spectral changes induced during equilibrium titrations (Δ3–22 human CYP3A4 (WT) [5]): type I | Kd (Δ3–22 human CYP3A4 (WT) [5]; pH 7.4): 15400 ± 2060 µM | Spectral changes in the presence of ligand (S119A mutant of CYP3A4 [11]): neither mutant exhibits spectral changes
SMILES: O=S(=O)(O)Cc1ccccc1 [PMSA, phenylmethanesulfonic acid]

SMILES: O=S(=O)(F)Cc1ccccc1 [PMSF, phenylmethylsulfonyl fluoride]
t1/2 in aqueous solutions [13]: 55 min | Fold decrease in binding affinity by mutation (R212A mutant of CYP3A4 [9]; R212A vs WT): 4 fold | Type of spectral changes induced during equilibrium titrations (Δ3–22 human CYP3A4 (WT) [5]; WT CYP3A4): type I | High-spin shift relative to WT (S119A mutant of CYP3A4 [11]; S119A variant): ~ 30 % of WT | Fold decrease in binding affinity by mutation (S119A mutant of CYP3A4 [11]; S119A vs WT): 4 fold

Reference: article PMC6448587 (Biochemistry, 2019)
